Counter-ions that a name gives are not always drawn. Like-named read-outs stand apart in the source and are kept apart here.
How the values were obtained:
[1] = tested on: RS4;11 leukaemia tumour line; assay: In vitro cytotoxicity (Microculture Tetrazolium Assay, 48 hours); assay type: cell-based; details: read-out: IC50 (nM) MTT RS4
Method: The cytotoxicity studies were carried out on the RS4;11 leukaemia tumour line.
The cells are distributed onto microplates and exposed to the test compounds for 48 hours.

Bcl-2 protein = Bcl-2 protein (Homo sapiens (Human), UniProt P10415); assay: Inhibition of Bcl-2 by the fluorescence polarisation technique; assay type: binding; details: fluorescence polarisation test; concentration that inhibits fluorescence polarisation by 50%; read-out: IC50 (nM) Bcl-2 FP
Method: The fluorescence polarisation tests were carried out on microplates (384 wells). […] After incubation for 2 hours, the fluorescence polarisation is measured.

[2] = Homo sapiens, RS4;11 cells, 48 hours exposure, MTT, concentration that inhibits cell viability by 50%

Chain of Bcl-2 protein (P10415 whole entry): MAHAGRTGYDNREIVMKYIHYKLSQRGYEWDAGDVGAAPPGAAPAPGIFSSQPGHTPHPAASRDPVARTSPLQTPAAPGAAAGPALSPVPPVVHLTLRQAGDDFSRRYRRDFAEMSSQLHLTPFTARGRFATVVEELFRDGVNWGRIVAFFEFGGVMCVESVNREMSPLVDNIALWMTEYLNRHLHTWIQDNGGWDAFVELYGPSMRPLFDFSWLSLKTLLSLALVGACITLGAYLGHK

Molecule	IC50 (Bcl-2 protein)	IC50 [1, 2]	IC50 ([1]; RS4;11 cells, 48 hours exposure, MTT, concentration that inhibits cell viability by 50%)	IC50 ([1]; Homo sapiens, RS4-11, 48 h)
Tert-butyl 8-{[4-hydroxy(1-methyl-1H-indol-5-yl)anilino]carbonyl}-6-{6-[((3S)-3-(4-morpholinylmethyl)-3,4-dihydro-2(1H)-isoquinolinyl)carbonyl]-1,3-benzodioxol-5-yl}-3,4-dihydropyrrolo[1,2-a]pyrazine-2(1H)-carboxylate [Example 72]	220 nM	–	270 nM	–
O=C(c1cc(-c2cc(F)ccc2C(=O)N2Cc3ccccc3C[C@H]2CN2CCOCC2)n2c1CCCC2)N(c1ccccc1)c1ccc(O)cc1 [Example 25, 3-{5-Fluoro-2-[((3S)-3-(4-morpholinylmethyl)-3,4-dihydro-2(1H)-isoquinolinyl)carbonyl]phenyl}-N-(4-hydroxyphenyl)-N-phenyl-5,6,7,8-tetrahydro-1-indolizine carboxamide hydrochloride]	29 nM	143 nM	–	–
O=C(c1cc(-c2cc(Cl)ccc2C(=O)N2Cc3ccccc3C[C@H]2CN2CCOCC2)n2c1CCCC2)N(c1ccccc1)c1ccc(O)cc1 [Example 20, 3-{5-Chloro-2-[((3S)-3-(4-morpholinylmethyl)-3,4-dihydro-2(1H)-isoquinolinyl)carbonyl]phenyl}-N-(4-hydroxyphenyl)-N-phenyl-5,6,7,8-tetrahydro-1-indolizine carboxamide hydrochloride]	35 nM	105 nM	–	–
Cn1ccc2cc(N(C(=O)c3cc(-c4cc(Cl)ccc4C(=O)N4Cc5ccccc5C[C@H]4CN4CCOCC4)n4c3COCC4)c3ccc(O)cc3)ccc21 [Example 86, 6-{5-Chloro-2-[((3S)-3-(4-morpholinylmethyl)-3,4-dihydro-2(1H)-isoquinolinyl)carbonyl]phenyl}-N-(4-hydroxyphenyl)-N-(1-methyl-1H-indol-5-yl)-3,4-dihydro-1H-pyrrolo[2,1-c][1,4]oxazine-8-carboxamide hydrochloride]	22 nM	29.5 nM	–	–
O=C(c1cc(-c2cc(Cl)ccc2C(=O)N2Cc3ccccc3C[C@H]2CN2CCOCC2)n2c1CCCC2)N(c1ccc(O)cc1)c1ccc2c(c1)CCN2 [Example 21, 3-{5-Chloro-2-[((3S)-3-(4-morpholinylmethyl)-3,4-dihydro-2(1H)-isoquinolinyl)carbonyl]phenyl}-N-(2,3-dihydro-1H-indol-5-yl)-N-(4-hydroxyphenyl)-5,6,7,8-tetrahydro-1-indolizine carboxamide bis(hydrochloride)]	22 nM	34.6 nM	–	–
O=C(c1cc(-c2cc(Cl)ccc2C(=O)N2Cc3ccccc3C[C@H]2CN2CCOCC2)n2c1CCCC2)N(c1ccc(O)cc1)c1cccc(Cl)c1 [Example 131, 3-(5-Chloro-2-{[(3S)-3-(morpholin-4-ylmethyl)-3,4-dihydroisoquinolin-2(1H)-yl]carbonyl}phenyl)-N-(3-chlorophenyl)-N-(4-hydroxyphenyl)-5,6,7,8-tetrahydroindolizine-1-carboxamide hydrochloride]	30 nM	88.4 nM	–	–
O=C(c1cc(-c2cc(F)ccc2C(=O)N2Cc3ccccc3C[C@H]2CN2CCOCC2)n2c1CC(O)CC2)N(c1ccccc1)c1ccc(O)cc1 (stereo partly drawn) [Example 100, 3-(5-Fluoro-2-{[(3S)-3-(morpholin-4-ylmethyl)-3,4-dihydroisoquinolin-2(1H)-yl]carbonyl}phenyl)-7-hydroxy-N-(4-hydroxyphenyl)-N-phenyl-5,6,7,8-tetrahydroindolizine-1-carboxamide hydrochloride]	22 nM	856 nM	–	–
CN1CC(C)(C)c2cc(N(C(=O)c3cc(-c4cc(Cl)ccc4C(=O)N4Cc5ccccc5C[C@H]4CN4CCOCC4)n4c3CCCC4)c3ccc(O)cc3)ccc21 [Example 49, 3-{5-Chloro-2-[((3S)-3-(4-morpholinylmethyl)-3,4-dihydro-2(1H)-isoquinolinyl)carbonyl]phenyl}-N-(4-hydroxyphenyl)-N-(1,3,3-trimethyl-2,3-dihydro-1H-indol-5-yl)-5,6,7,8-tetrahydro-1-indolizine carboxamide]	45 nM	169 nM	–	–
Cc1ccc(N(C(=O)c2cc(-c3cc(Cl)ccc3C(=O)N3Cc4ccccc4C[C@H]3CN3CCOCC3)n3c2COCC3)c2ccc(O)cc2)cc1F [Example 82, 6-{5-Chloro-2-[((3S)-3-(4-morpholinylmethyl)-3,4-dihydro-2(1H)-isoquinolinyl)carbonyl]phenyl}-N-(3-fluoro-4-methylphenyl)-N-(4-hydroxyphenyl)-3,4-dihydro-1H-pyrrolo[2,1-c][1,4]oxazine-8-carboxamide hydrochloride]	33 nM	21.9 nM	–	–
O=C(c1cc(-c2cc3c(cc2C(=O)N2Cc4ccccc4C[C@H]2CN2CCOCC2)OCCCO3)n2c1CCCC2)N(c1ccccc1)c1ccc(O)cc1 [Example 31, N-(4-Hydroxyphenyl)-3-{8-[((3S)-3-(4-morpholinylmethyl)-3,4-dihydro-2(1H)-isoquinolinyl)carbonyl]-3,4-dihydro-2H-1,5-benzodioxepin-7-yl}-N-phenyl-5,6,7,8-tetrahydro-1-indolizine carboxamide hydrochloride]	33 nM	340 nM	–	–
O=C(c1cc(-c2cc3c(cc2C(=O)N2Cc4ccccc4C[C@H]2CN2CCOCC2)OCO3)n2c1CCCC2)N(c1ccc(O)cc1)c1ccc(O)cc1 [Example 6, N,N-bis(4-Hydroxyphenyl)-3-{6-[((3S)-3-(4-morpholinylmethyl)-3,4-dihydro-2(1H)-isoquinolinyl)carbonyl]-1,3-benzodioxol-5-yl}-5,6,7,8-tetrahydro-1-indolizine carboxamide hydrochloride]	15 nM	–	–	30 nM
O=C(c1cc(-c2cc3c(cc2C(=O)N2Cc4ccccc4C[C@H]2CN2CCOCC2)OCO3)n2c1CCCC2)N(c1ccc(O)cc1)c1ccc(OC(F)(F)F)cc1 [Example 5, N-(4-Hydroxyphenyl)-3-{6-[((3S)-3-(4-morpholinylmethyl)-3,4-dihydro-2(1H)-isoquinolinyl)carbonyl]-1,3-benzodioxol-5-yl}-N-[4-(trifluoromethoxy)phenyl]-5,6,7,8-tetrahydro-1-indolizine carboxamide hydrochloride]	51 nM	98 nM	–	–
COc1cccc(N(C(=O)c2cc(-c3cc(Cl)ccc3C(=O)N3Cc4ccccc4C[C@H]3CN3CCOCC3)n3c2CCCC3)c2ccc(O)cc2)c1 [Example 124, 3-(5-Chloro-2-{[(3S)-3-(morpholin-4-ylmethyl)-3,4-dihydroisoquinolin-2(1H)-yl]carbonyl}phenyl)-N-(4-hydroxyphenyl)-N-(3-methoxyphenyl)-5,6,7,8-tetrahydroindolizine-1-carboxamide hydrochloride]	28 nM	101 nM	–	–

Second part, led by results:

IC50 (Bcl-2 protein)	Molecule	IC50 [1, 2]	IC50 ([1]; RS4;11 cells, 48 hours exposure, MTT, concentration that inhibits cell viability by 50%)	IC50 ([1]; Homo sapiens, RS4-11, 48 h)
10 nM	CN1CCN(C[C@@H]2Cc3ccccc3CN2C(=O)c2cc3c(cc2-c2cc(C(=O)N(c4ccccc4)c4ccc(O)cc4)c4n2CCCC4)OCO3)CC1=O [Example 128, N-(4-Hydroxyphenyl)-3-(6-{[(3S)-3-[(4-methyl-3-oxopiperazin-1-yl)methyl]-3,4-dihydroisoquinolin-2(1H)-yl]carbonyl}-1,3-benzodioxol-5-yl)-N-phenyl-5,6,7,8-tetrahydroindolizine-1-carboxamide hydrochloride]	63.4 nM	–	–
9 nM	COc1ccc(C(=O)N2Cc3ccccc3C[C@H]2CN2CCOCC2)c(-c2cc(C(=O)N(c3ccc(O)cc3)c3ccc(C)c(F)c3)c3n2CCCC3)c1 [Example 114, N-(3-Fluoro-4-methylphenyl)-N-(4-hydroxyphenyl)-3-(5-methoxy-2-{[(3S)-3-(morpholin-4-ylmethyl)-3,4-dihydroisoquinolin-2(1H)-yl]carbonyl}phenyl)-5,6,7,8-tetrahydroindolizine-1-carboxamide hydrochloride]	43.1 nM	–	–
16 nM	Cn1ncc2cc(N(C(=O)c3cc(-c4cc5c(cc4C(=O)N4Cc6ccccc6C[C@H]4CN4CCOCC4)OCCO5)n4c3CCCC4)c3ccc(O)cc3)ccc21 [Example 39, N-(4-Hydroxyphenyl)-N-(1-methyl-1H-indazol-5-yl)-3-{7-[((3S)-3-(4-morpholinylmethyl)-3,4-dihydro-2(1H)-isoquinolinyl)carbonyl]-2,3-dihydro-1,4-benzodioxin-6-yl}-5,6,7,8-tetrahydro-1-indolizine carboxamide hydrochloride]	14.1 nM	–	–
17 nM	CN1CCOc2cc(N(C(=O)c3cc(-c4cc(Cl)ccc4C(=O)N4Cc5ccccc5C[C@H]4CN4CCOCC4)n4c3CCCC4)c3ccc(O)cc3)ccc21 [Example 27, 3-{5-Chloro-2-[((3S)-3-(4-morpholinylmethyl)-3,4-dihydro-2(1H)-isoquinolinyl)carbonyl]phenyl}-N-(4-hydroxyphenyl)-N-(4-methyl-3,4-dihydro-2H-1,4-benzoxazin-7-yl)-5,6,7,8-tetrahydro-1-indolizine carboxamide hydrochloride]	35.4 nM	–	–
6 nM	Cn1ccc2cc(N(C(=O)c3cc(-c4cc(Cl)ccc4C(=O)N4Cc5ccccc5C[C@H]4CN4CCOCC4)n4c3CCCC4)c3ccc(O)cc3)cnc21 [Example 103, 3-(5-Chloro-2-{[(3S)-3-(morpholin-4-ylmethyl)-3,4-dihydroisoquinolin-2(1H)-yl]carbonyl}phenyl)-N-(4-hydroxyphenyl)-N-(1-methyl-1H-pyrrolo[2,3-b]-pyridin-5-yl)-5,6,7,8-tetrahydroindolizine-1-carboxamide]	16.8 nM	–	–
7 nM	COc1ccc(C(=O)N2Cc3ccccc3C[C@H]2CN2CCOCC2)c(-c2cc(C(=O)N(c3ccc(O)cc3)c3ccc4c(cnn4C)c3)c3n2CCCC3)c1 [Example 104, N-(4-Hydroxyphenyl)-3-(5-methoxy-2-{[(3S)-3-(morpholin-4-ylmethyl)-3,4-dihydroisoquinolin-2(1H)-yl]carbonyl}phenyl)-N-(1-methyl-1H-indazol-5-yl)-5,6,7,8-tetrahydroindolizine-1-carboxamide hydrochloride]	21.6 nM	–	–
